PubChem BioAssay (NCI)
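Results reflect a 48-hour exposure of cells in 96-well plates to compound at five concentrations. GI50 marks 50% less growth. TGI: total growth inhibition.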

What was measured:
Experiment in all cases: growth of human tumour cells (NCI), 48 h
CAKI-1 renal = tested on: CAKI-1 renal
COLO 205 colon = tested on: COLO 205 colon
DLD-1 colon = tested on: DLD-1 colon
DMS 273 small cell lung = tested on: DMS 273 small cell lung
KM20L2 colon = tested on: KM20L2 colon
OVCAR-4 ovarian = tested on: OVCAR-4 ovarian
OVCAR-5 ovarian = tested on: OVCAR-5 ovarian
SF-539 CNS = tested on: SF-539 CNS
TK-10 renal = tested on: TK-10 renal
MDA-MB-231 breast = tested on: MDA-MB-231 breast
MDA-MB-435 = tested on: MDA-MB-435
M19-MEL melanoma = tested on: M19-MEL melanoma

| Compound | TGI (CAKI-1 renal) [µM] | TGI (COLO 205 colon) [µM] | TGI (DLD-1 colon) [µM] | TGI (DMS 273 small cell lung) [µM] | TGI (KM20L2 colon) [µM] | TGI (OVCAR-4 ovarian) [µM] | TGI (OVCAR-5 ovarian) [µM] | TGI (SF-539 CNS) [µM] | TGI (TK-10 renal) [µM] | TGI (MDA-MB-231 breast) [µM] | TGI (MDA-MB-435) [µM] | GI50 (CAKI-1 renal) [µM] | GI50 (COLO 205 colon) [µM] | GI50 (MDA-MB-231 breast) [µM] | GI50 (MDA-MB-435) [µM] | GI50 (OVCAR-4 ovarian) [µM] | GI50 (OVCAR-5 ovarian) [µM] | GI50 (SF-539 CNS) [µM] | GI50 (TK-10 renal) [µM] | TGI (M19-MEL melanoma) [µM] |
| --- | --- | --- | --- | --- | --- | --- | --- | --- | --- | --- | --- | --- | --- | --- | --- | --- | --- | --- | --- | --- |
| O=C(CC1(O)C(=O)Nc2c(Cl)cc(Cl)cc21)c1cccc2ccccc12 (stereo not drawn) | 25.3 | 31.4 | 33 | 27.5 | 34.1 | 25.4 | 37.1 | 32.4 | 27.3 |  |  |  |  |  |  |  |  |  |  |  |
| COC1OC(COCc2ccc(Cl)cc2)C(OCc2ccc(Cl)cc2)C1N=[N+]=[N-] (stereo not drawn) | > 100 | > 100 |  |  | > 100 | > 100 | > 100 |  | > 100 |  |  |  |  |  |  |  |  |  |  |  |
| C=C1CC/C=C(\C)C(=O)C[C@@H]2[C@@H]1CC2(C)C | 3.01 | 3.87 |  |  |  | 6.48 | 27.3 | 8.46 | 17.1 | 28.6 | 5.18 |  |  |  |  |  |  |  |  |  |
| N#CSCC1CC(O)(c2ccccc2)CC(c2ccc(F)cc2)O1 (stereo not drawn) | 8.5 | 4.25 |  |  |  | 8.08 | 5.28 | 3.66 | 5.77 | 4.2 | 4.08 | 2.54 | 2.02 | 1.97 | 1.83 | 2.42 | 2.32 | 1.96 | 2.07 |  |
| Cn1ccnc1C(=O)/C=C/c1ccccc1 | 19 | 18 |  |  |  | 26 | 27.8 | 4.78 | 19.1 | 16.8 | 10.2 | 3.88 | 5.38 | 3.39 | 3.21 | 7.47 | 13.7 | 2.18 | 5.83 |  |
| Cc1c(COc2cc(OCc3cccc(C#N)c3)c(CN3C[C@H](O)C[C@@H]3C(=O)O)cc2Cl)cccc1-c1ccc2c(c1)OCCO2 | 27.6 | 39.7 |  |  |  | 61.4 | 31 | 29.2 | 41.5 | 29.6 | 33.6 | 14.5 | 20.7 | 13.8 | 17 | 24.7 | 17.3 | 15.2 | 20.2 |  |
| Fc1ccccc1C1CC(c2ccc3ccccc3c2)=Nc2ccccc2S1 (stereo not drawn) | > 100 | > 100 |  | > 100 | > 100 | > 100 | > 100 | > 100 | > 100 |  |  |  |  |  |  |  |  |  |  | > 100 |
| CC1OC(OC2C(O[C@H]3CC[C@@]4(C)C(=CC[C@H]5[C@@H]6C[C@@H]7O[C@]8(CC[C@H](C)CN8)[C@@H](C)[C@@H]7[C@@]6(C)CC[C@@H]54)C3)OC(CO)C(O)C2OC2OC(CO)C(O)C(O)C2O)C(O)C(O)C1O (stereo partly drawn) | 34 | 31.8 |  |  |  | 37 | 28.7 | 33.8 | 31.1 | 38.8 | 50.7 |  |  |  |  |  |  |  |  |  |
| COc1ccc(Cn2cc3c(c2-c2ccc(OC)cc2)CCc2cnoc2-3)cc1 | > 100 | 0.815 |  |  |  | > 100 | > 100 | 2.13 | > 100 | > 53.7 | 0.48 | 0.309 | 0.296 | 1.41 | 0.181 | 0.93 | 2.68 | 0.307 | 0.616 |  |
| O=C(NCc1ccc(Cn2c(=O)sn(-c3ccccc3)c2=O)cc1)OCc1ccc2c(Br)cc(Br)c(O)c2n1 | 1.67 | 1.79 |  |  |  | 1.96 | 2.97 | 2.07 | 1.39 | 2.53 | 1.59 | 0.404 | 0.399 | 1.18 | 0.427 | 0.695 | 1.43 | 0.793 | 0.404 |  |
| CCN(C(=O)c1cc(F)ccc1Oc1cncnc1N1CC2(CCN(CC3CCC(NS(=O)(=O)CC)CC3)CC2)C1)C(C)C (stereo not drawn) | > 100 | > 100 |  |  |  | > 100 | > 100 | > 100 | > 100 | > 100 | > 100 | > 100 | > 100 | > 100 | > 100 | > 100 | > 100 | > 100 | > 100 |  |
| COc1cc2c3c(n(CCCI)c(=O)c2cc1OC)-c1cc2c(cc1C3=O)OCO2 | > 100 | > 100 |  |  |  | > 100 | > 100 | > 100 | 57 | > 100 | > 100 | 0.454 | 9.17 | 18.7 | 6.06 | 17.2 | > 100 | 4.04 | 14.7 |  |
| Cc1occc1C(=S)Nc1ccc(Cl)c(C(=O)OC(C)C2CC2)c1 (stereo not drawn) | 48.8 | 51.3 |  |  |  | 40.5 | 61.2 | 71.6 | > 100 | 45.7 | 66.2 |  |  |  |  |  |  |  |  |  |
| CCC1CCc2nc3sc(C(=O)Nc4cccc(F)c4)c(N)c3cc2C1 (stereo not drawn) | > 100 | > 100 |  |  |  | > 100 | > 100 | > 100 | > 100 | > 100 | 0.616 | 0.867 | 51.8 | > 100 | 0.11 | > 100 | > 100 | > 100 | > 100 |  |
| CN(C)c1ccc(Nc2cc(-c3cccc(OC(F)(F)F)c3)nc3ccc(N4CCCC4)cc23)cc1 | 3.57 | 9.02 |  |  |  | 3.77 | 3.37 | 3.36 | 3.3 | 3.23 | 3.37 | 1.75 | 2.56 | 1.76 | 1.82 | 1.98 | 1.79 | 1.77 | 1.84 |  |
| COCCCNC(=O)CC(=O)NCCCOC |  | > 100 | > 100 |  | > 100 | > 100 | > 100 | > 100 | > 100 |  |  |  |  |  |  |  |  |  |  | > 100 |
| c1cc(CNCCN2CCNCC2)ccn1 | > 100 | > 100 |  |  |  | > 100 | > 100 | > 100 | 86.7 | > 100 | > 100 |  |  |  |  |  |  |  |  |  |
